“Also recorded” adds a separate entry of the source.
Legend:
skin cells = test: Proliferation (MTS, BrdU), FIG. 3; format: cell-based
Experimental: (§1) Materials and methods. Proliferation was measured by MTS and BrdU incorporation assays. Apoptosis was assessed by DNA fragmentation, Cell Death Detection ELISA and caspase-3-assays. Effect of B3CD on TrkB signaling by BDNF was assessed by Western Blot analysis of AKT and ERK phosphorylation. The effect on angiogenesis was determined by chick chorioallantoic membrane (CAM) assay and aortic ring assay.
(§2) B3CD was tested on the panel of cell described above. […] Such cell-type specificity is not uncommon. […] However, keratinocytes were not affected by B3CD (FIG. 4A; Lane-2). In addition, caspase-3 activity was increased by B3CD (FIG. 4B). These studies indicated an underlying apoptotic mechanism in the anticancer activity of B3CD.

smooth muscle cells = test: Proliferation (MTS, BrdU), FIG. 3; format: cell-based
Experimental: as §1, §2

macrophage cells = test: Proliferation (MTS, BrdU), FIG. 3; format: cell-based
Experimental: as §1, §2

endothelial cells [1] = test: Proliferation (MTS, BrdU), FIG. 3; format: cell-based
Experimental: as §1, §2

pancreatic cells = test: Proliferation (MTS, BrdU), FIG. 3; format: cell-based
Experimental: as §1, §2

breast cells = test: Proliferation (MTS, BrdU), FIG. 3; format: cell-based
Experimental: as §1, §2

osteosarcoma cells = test: Proliferation (MTS, BrdU), FIG. 3; format: cell-based
Experimental: as §1, §2

ovarian cancer cells [2] = test: Proliferation (MTS, BrdU), FIG. 3; format: cell-based
Experimental: as §1, §2

prostate cancer cells [3] = test: Proliferation (MTS, BrdU), FIG. 3; format: cell-based
Experimental: as §1, §2

neuroblastic cells [4] = test: Proliferation (MTS, BrdU), FIG. 3; format: cell-based
Experimental: as §1, §2

IMR-32 cells = test: Apoptosis in apoptosis-resistant NB cells; format: cell-based; conditions: IMR-32; data not shown
Experimental: (§3) NB is characterized with defective apoptotic pathways. […] Neuronal (N-) type SH-SY5Y and IMR-32 cells, and stromal (S-) type SMS-KCNR cells which are resistant to apoptosis were used. […] A defect in caspase-8 or its activation causes resistance to apoptosis and in turn to chemotherapy in all these cells. On the other hand, these cells carry intact intrinsic apoptotic pathway, and executioner caspase-3 is activated by caspase-9 route.
(§4) In depth studies were carried out to assess the activation of intrinsic and extrinsic apoptotic pathways. […] Caspase-9 was activated by B3CD in these cells (FIG. 10B), indicating an active role of intrinsic pathway of apoptosis. […] However, caspase-8 was undetectable in IMR-32 and SH-SY5Y cells.
(§5) Although caspase-8 was detected in SMS-KCNR cells, it was not activated by B3CD (FIG. 10D). Actin immunoblotting was used as loading control in the above studies (data not shown).

SMS-KCNR cells = test: Apoptosis in apoptosis-resistant NB cells; format: cell-based; conditions: data not shown
Experimental: as §3, §4, §5

[5] = tested on: SK-N-SH, SH-Sy5Y, SMS-KCN and SMS-R neuroblastic cells; test: Viability and proliferation of neuroblastoma cells, 48 hrs; format: cell-based; design: inhibition of proliferation: dose or concentration left out as unconfirmed
Experimental: as §1
(§6) Neuroblastoma cells were treated with B3CD for 48 hrs. […] AT 0.5 nM, B3CD inhibited >50% (p<0.035) and >90% at […] (p<0.01) viability and proliferation respectively.

caspase-3 [6] = test: Caspase-3 assay in neuroblastic cells, FIG. 4B; format: cell-based
Experimental: as §1, §2

[7] = tested on: Human umbilical vein endothelial cells (HUVEC); test: Endothelial cell viability / proliferation assay; format: cell-based; conditions: 25-400 nM, 24 hours
Experimental: Human umbilical vein endothelial cells (HUVEC) were treated with B3CD (25, 50, 100, 200 and 400 nM) for 24 hours and proliferation was measured as before. Vehicle and CD treated controls were used in each experiment. […] Following the treatment with B3CD, the endothelial cells were rounded up and floated, showing indications of apoptosis similar to NB.

neuroblastic cells [8] = test: Apoptosis (DNA fragmentation, Cell Death Detection ELISA), FIG. 4A; format: cell-based
Experimental: as §1, §2

endothelial cells [9] = test: Apoptosis in endothelial cells (DNA fragmentation); format: cell-based
Excerpt: (§7) Apoptosis in EC by B3CD was studied by DNA fragmentation and caspase-3 activation analyses as before.

keratinocytes = test: Apoptosis by DNA fragmentation, FIG. 4A; format: cell-based
Experimental: as §1, §2

ovarian cancer cells [10] = test: Apoptosis by DNA fragmentation, FIG. 4A; format: cell-based
Experimental: as §1, §2

prostate cancer cells [11] = test: Apoptosis by DNA fragmentation, FIG. 4A; format: cell-based
Experimental: as §1, §2

SK-N-SH cells [12] = test: Proliferation by BrdU incorporation assay; format: cell-based; conditions: 0-800 nM, 48 hours
Experimental: SK-N-SH and SH-SY5Y neuroblastic cells were treated with increasing doses of calcidiol or B3CD (0, 25, 50, 100, 200, 400 and 800 nM) for 48 hours. Cell viability was assessed by MTS assay and proliferation was determined by BrdU incorporation assay.

[13] = tested on: VEGF induced angiogenesis; test: Chick chorioallantoic membrane (CAM) assay; format: in vivo
Experimental: as §1
The antiproliferative effect of B3CD on endothelial cells was further investigated.
The ability of B3CD to inhibit angiogenesis/neovascularization was tested. Preliminary studies were carried out using chick chorioallantoic membrane (CAM) assay. Calcidiol or B3CD were deposited in the presence of growth factor (VEGF) and deposited on the CAM and eggs were incubated for 3 days at 37° C. (3% CO2). The control carried the growth factor alone. VEGF induces angiogenesis which results in sprouting of capillaries from the large vessels. The compounds diffuse out and any inhibitory molecule would reduce the growth of blood vessel network.

cytochrome-c = test: Cyt-C immunoblot of cytosol of NB cells; format: cell-based; conditions: SMS-KCNR, SH-SY5Y and IMR-32 cells
Experimental: FIG. 10C. Cyt-C immunoblot of cytosol of NB cells: A and D-SMS-KCNR; B and E-5H-SY5Y and C and F-IMR-32.
as §4

SK-N-SH cells [14] = test: Cell cycle analysis; format: cell-based; conditions: 400 nm
TrkB signaling by BDNF = test: Effect on TrkB signaling by BDNF (Western Blot); format: cell-based; conditions: neuroblastoma cells
Experimental: as §1, §6

caspase-3 [15] = test: Caspase-3 activation in endothelial cells; format: cell-based; conditions: data not shown
Excerpt: as §7

Compound: C=C1CC[C@H](OC(=O)CBr)C/C1=C/C=C1\CCC[C@]2(C)[C@@H]([C@H](C)CCCC(C)(C)O)CC[C@@H]12 [B3CD, bromoacetic acid 3-{2-[1-(5-hydroxy-1,5-dimethyl-hexyl)-7a-methyl-octahydro-inden-4-ylidene]-ethylidene}-4-methylene-cyclohexyl ester]
- effect on proliferation (skin cells): did not show an effect on proliferation
- effect on proliferation (smooth muscle cells): did not show an effect on proliferation
- effect on proliferation (macrophage cells): did not show an effect on proliferation
- antiproliferative and cytotoxic effects (endothelial cells [1]): potent antiproliferative and cytotoxic effects; also recorded: inhibit proliferation
- effect on proliferation (pancreatic cells): did not show an effect on proliferation
- effect on proliferation (breast cells): did not show an effect on proliferation
- effect on proliferation (osteosarcoma cells): did not show an effect on proliferation
- antiproliferative and cytotoxic effects (ovarian cancer cells [2]): potent antiproliferative and cytotoxic effects
- antiproliferative and cytotoxic effects (prostate cancer cells [3]): potent antiproliferative and cytotoxic effects
- antiproliferative and cytotoxic effects (neuroblastic cells [4]): potent antiproliferative and cytotoxic effects
- cell viability (neuroblastic cells [4]; by 24 hours): less than 15 % of the untreated control cells
- induction of apoptosis (IMR-32 cells): induced apoptosis
- induction of apoptosis (SMS-KCNR cells): induced apoptosis
- inhibition of proliferation (in words) [5]: dose dependent manner
- cytotoxicity at 0.0005 µM ([5]; Neuroblastoma cell, 0.5 nM, p<0.035, read-out: inhibition of viability): > 50%
- inhibition of proliferation ([5]; p<0.01): > 90%
- caspase-3 activity (caspase-3 [6]): increased; also recorded: activated caspase-3
- proliferation of EC [7]: strongly inhibited the proliferation
- viability of EC [7]: dose dependent decrease in viability
- DNA laddering (apoptosis) (neuroblastic cells [8]): distinct DNA laddering characteristic of apoptosis
- induction of apoptosis (neuroblastic cells [8]): induced rapid apoptosis
- DNA fragmentation (endothelial cells [9]): DNA fragmentation characteristic of apoptosis
- induction of apoptosis (endothelial cells [9]; data not shown): induced apoptosis
- DNA laddering (apoptosis) (keratinocytes): not affected
- DNA laddering (apoptosis) (ovarian cancer cells [10]): distinct DNA laddering characteristic of apoptosis
- DNA laddering (apoptosis) (prostate cancer cells [11]): distinct DNA laddering characteristic of apoptosis
- proliferation, BrdU incorporation (SK-N-SH cells [12]): strong inhibition of proliferation
- inhibition of angiogenesis / neovascularization (in words) ([13]; VEGF present): inhibited VEGF induced angiogenesis; also recorded: inhibit
- inhibition of neovascularization ([13]; compared to untreated controls): ~60%
- density of fine capillary network ([13]; versus VEGF control eggs): markedly reduced
- cytochrome-c release into cytosol (cytochrome-c): released into cytosol
- apoptotic cells (SK-N-SH cells [14]; 7% in control): 45%
- cell cycle effect (SK-N-SH cells [14]; data not shown): G0/G1 block, inhibition of S-phase
- TrkB signaling by BDNF (TrkB signaling by BDNF): inhibited
- increase in caspase-3 activity (caspase-3 [15]): 5 fold

From patent publication US8853188B2, “Compositions and methods for cancer treatment” (Women and Infants Hospital of RI, Inc., priority 2005, dated 2014)
